The target in one assay is T1, Igf2bp1 (Homo sapiens, UniProt Q9NZI8).
T1 construct: Recombinant full-length Igf2bp1 protein was labelled with RED-tris-NTA dye; made in house
Put plainly: Fluorescence polarization (FP) assay of Igf2bp1 binding to fluorescent Kras 6 RNA. The conditions noted are these: FP dose response; read-out: IC50, inhibition of Igf2bp1 binding to Kras 6 RNA. The protocol:
For the small-molecule screen, compounds were obtained from the collection maintained at the Grand Israel National Center for Personalized Medicine, consisting of molecules purchased from commercial vendors. Labelled RNA (10 nM) was incubated with recombinant Igf2bp1 protein (400 nM) in FAM-RNA buffer (10 mM Tris pH 8.0, 75 mM KCl, 0.5 mM EDTA, 1 mM DTT, 0.0188 U/μL RNAsin, 0.0005 μg/mL heparin, 0.0001 μg/μL tRNA, 0.01% Triton X-100, 3 mM MgCl2, 0.05% IGEPAL) at room temperature for 15 min. 7 μL of this reaction mix was aliquoted with GNF WDII (USA) into wells of 1536 well plates, with a final concentration of 20 μM compound or DMSO. The plates were spun down and read in a BMG Pherastar FS (Germany) plate reader, in FP mode with a 485/520/520 polarization filter, calibrated to 35 mP for free fluorescein with similar total intensity as experimental samples. […]
To determine the quality of our screening assay, the Z’ factor for each plate was calculated with a Z’ factor greater than 0.5 indicating a robust assay suitable for high throughput screening. Compounds that altered the overall fluorescence intensity compared to controls were considered auto florescence and excluded from further analysis. […] Any small molecule that causes a change of more than three standard deviations from the mean is determined appropriate for further investigation.
In general terms: Polarisation of emitted light reports the rotation of a fluorescent probe.

The target in another assay is T2, G9a (Homo sapiens, UniProt Q96KQ7).
T2 sequence (Q96KQ7 1-1210): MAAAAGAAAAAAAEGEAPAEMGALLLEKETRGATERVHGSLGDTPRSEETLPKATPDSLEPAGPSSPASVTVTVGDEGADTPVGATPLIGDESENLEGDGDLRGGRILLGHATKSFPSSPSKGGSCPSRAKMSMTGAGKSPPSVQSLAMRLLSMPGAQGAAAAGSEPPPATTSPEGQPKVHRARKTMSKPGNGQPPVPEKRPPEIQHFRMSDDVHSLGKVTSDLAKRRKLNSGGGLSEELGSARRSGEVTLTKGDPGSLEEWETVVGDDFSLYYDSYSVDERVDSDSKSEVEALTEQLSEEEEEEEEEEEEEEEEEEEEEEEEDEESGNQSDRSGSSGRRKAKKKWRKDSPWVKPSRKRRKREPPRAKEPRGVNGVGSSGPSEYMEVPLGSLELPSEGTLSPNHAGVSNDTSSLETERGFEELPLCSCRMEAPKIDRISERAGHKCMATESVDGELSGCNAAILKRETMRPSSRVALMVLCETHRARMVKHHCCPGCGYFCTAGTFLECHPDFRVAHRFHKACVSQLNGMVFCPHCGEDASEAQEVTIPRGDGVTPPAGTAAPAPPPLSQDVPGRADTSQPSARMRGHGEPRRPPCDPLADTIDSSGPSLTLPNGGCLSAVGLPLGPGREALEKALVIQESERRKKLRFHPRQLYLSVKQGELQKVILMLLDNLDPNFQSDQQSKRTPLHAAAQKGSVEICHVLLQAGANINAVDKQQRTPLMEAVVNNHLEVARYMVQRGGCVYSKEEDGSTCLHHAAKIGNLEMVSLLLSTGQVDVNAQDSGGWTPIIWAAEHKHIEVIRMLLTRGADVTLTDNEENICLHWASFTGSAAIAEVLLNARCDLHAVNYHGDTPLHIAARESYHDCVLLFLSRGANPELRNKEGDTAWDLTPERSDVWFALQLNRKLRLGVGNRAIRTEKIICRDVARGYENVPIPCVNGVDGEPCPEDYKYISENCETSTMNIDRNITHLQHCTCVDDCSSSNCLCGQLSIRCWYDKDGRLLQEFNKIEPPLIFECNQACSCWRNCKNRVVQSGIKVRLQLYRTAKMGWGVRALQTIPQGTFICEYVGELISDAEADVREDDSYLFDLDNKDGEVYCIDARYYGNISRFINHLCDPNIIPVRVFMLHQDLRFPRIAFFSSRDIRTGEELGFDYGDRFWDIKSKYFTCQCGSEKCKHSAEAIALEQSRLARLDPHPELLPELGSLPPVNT
Put plainly: G9a FP assay (SAH-FITC probe). It is filed as biochemical. The protocol:
For the small-molecule screen, compounds were obtained from the collection maintained at the Grand Israel National Center for Personalized Medicine, consisting of molecules purchased from commercial vendors. Labelled RNA (10 nM) was incubated with recombinant Igf2bp1 protein (400 nM) in FAM-RNA buffer (10 mM Tris pH 8.0, 75 mM KCl, 0.5 mM EDTA, 1 mM DTT, 0.0188 U/μL RNAsin, 0.0005 μg/mL heparin, 0.0001 μg/μL tRNA, 0.01% Triton X-100, 3 mM MgCl2, 0.05% IGEPAL) at room temperature for 15 min. 7 μL of this reaction mix was aliquoted with GNF WDII (USA) into wells of 1536 well plates, with a final concentration of 20 μM compound or DMSO. The plates were spun down and read in a BMG Pherastar FS (Germany) plate reader, in FP mode with a 485/520/520 polarization filter, calibrated to 35 mP for free fluorescein with similar total intensity as experimental samples. […]

For the next assay, the target named is T3, Igf2bp3 (Homo sapiens, UniProt O00425).
T3 construct: made in house
Briefly: MST, Igf2bp3. Particulars: IGF2BP3 50nM, read-out: KD of binding to Igf2bp3.

In assay [1] the test system is Igf2bp1-luciferase reporter fusions in RKO cells. Briefly: Split-luciferase assay (Igf2bp1 dimerization) in RKO cells. It is filed as cell-based. Particulars: 50 μM 7773. The protocol: Vectors expressing different fragments of split luciferase reporters with flexible linker were procured from Addgene (catalogue # 58786, 58787, 58788 and 58789). The vectors were digested with EcoRI and XhoI. EcoRI and XhoI restriction enzyme sites were added to 5′ and 3′ ends of the coding region of IGF2BP1, respectively, using PCR. We constructed four split luciferase reporter vectors by cloning IGF2BP1 in different orientations with the luciferase fragments . Primers used for the amplification of IGF2BP1 were: […]
The RKO cells were seeded in DMEM with 10% calf serum 24 hrs prior to the transfection. Transfection was done using Lipofectamine 2000 with reporter plasmids and Renilla-luciferase expressing vector (as internal control). After 24 hrs, cells were lysed using passive lysis buffer (Promega catalogue # E1941). The lysates were cleared by centrifugation and its 20 μL volume was mixed with 100 μL of luciferase substrate solution for luminescence recording which was followed by addition of 100 μL of Stop-glo solution (Promega catalogue # E1910) with an additional luminescence reading. Both readings were detected by using GloMax 20/20 Luminometer (Promega), and the final value for each sample was the ratio of their two respective readings. […]

pIC50, pKd: −log10 of the molar value. “And” between values parts separate entries of the source, which are not always exact repeats. Equal entries are not always repeated.

A word on the pIC50: it is −log10 of the IC50, conventionally taken in molar units. By pKd is commonly meant the Kd on a negative log10 scale, so that one unit is a factor of ten.

T1 sequence (Q9NZI8 whole entry): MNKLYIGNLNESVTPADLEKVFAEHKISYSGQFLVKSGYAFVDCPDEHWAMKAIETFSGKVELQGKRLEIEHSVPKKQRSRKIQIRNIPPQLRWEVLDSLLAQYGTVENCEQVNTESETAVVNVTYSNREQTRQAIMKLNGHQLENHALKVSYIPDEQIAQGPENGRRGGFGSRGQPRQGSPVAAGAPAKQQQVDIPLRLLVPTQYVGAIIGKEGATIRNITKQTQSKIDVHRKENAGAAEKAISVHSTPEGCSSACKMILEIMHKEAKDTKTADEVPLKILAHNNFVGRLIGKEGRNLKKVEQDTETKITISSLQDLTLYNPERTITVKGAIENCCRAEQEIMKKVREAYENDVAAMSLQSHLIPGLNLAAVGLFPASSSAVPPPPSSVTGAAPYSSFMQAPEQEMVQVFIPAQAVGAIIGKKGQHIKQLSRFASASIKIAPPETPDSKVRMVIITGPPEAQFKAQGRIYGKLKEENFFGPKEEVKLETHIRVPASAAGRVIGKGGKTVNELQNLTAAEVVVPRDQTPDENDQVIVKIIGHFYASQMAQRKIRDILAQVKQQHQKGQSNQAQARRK
T3 sequence (O00425 whole entry, species assumed): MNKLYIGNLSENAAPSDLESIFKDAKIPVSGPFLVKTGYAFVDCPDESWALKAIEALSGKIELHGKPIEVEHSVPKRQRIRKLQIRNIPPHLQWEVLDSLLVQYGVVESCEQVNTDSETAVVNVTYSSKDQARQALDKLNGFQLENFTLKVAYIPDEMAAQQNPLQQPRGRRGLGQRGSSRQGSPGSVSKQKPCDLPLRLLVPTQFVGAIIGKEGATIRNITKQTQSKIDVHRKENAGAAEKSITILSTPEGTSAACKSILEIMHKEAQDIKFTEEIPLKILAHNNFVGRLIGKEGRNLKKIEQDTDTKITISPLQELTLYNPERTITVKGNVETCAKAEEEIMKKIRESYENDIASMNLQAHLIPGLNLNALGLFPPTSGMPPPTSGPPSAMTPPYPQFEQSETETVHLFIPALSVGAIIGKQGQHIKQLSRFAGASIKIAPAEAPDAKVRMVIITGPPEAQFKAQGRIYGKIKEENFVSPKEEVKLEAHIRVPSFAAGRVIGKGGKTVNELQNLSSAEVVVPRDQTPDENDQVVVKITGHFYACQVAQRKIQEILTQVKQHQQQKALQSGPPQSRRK

As for `O=C(c1ccc(Cn2cnnn2)cc1)N1CCCC(Nc2ccc3c(c2)OCO3)C1` (stereo not shown) [compound 7773], at Igf2bp1, the pIC50 was ~4.52 and 4.52. Moreover, the “Effect on G9a catalysing methylation of a peptide” value at G9a is reported as “almost no effect”. Further, on Igf2bp3, the pKd was 4.28. Moreover, the “Effect on split-luciferase luminescence” value in assay [1] is given as “significantly reduced luminescence”.

Values taken from publication PMC8794255, “Small molecule inhibitor of Igf2bp1 represses Kras and a pro-oncogenic phenotype in cancer cells” (RNA Biology, 2021).
